Common to all, as to type: functional
In one assay the test system is Bacillus cereus. The experiment in a line: The compound was tested in vitro for antimicrobial activity against gram-positive bacteria Bacillus cereus (ATCC 14579) by conventional paper disk; 7-8.
The test system of assay [1] is Streptomyces chartreusis. The experiment in a line: The compound was tested in vitro for antimicrobial activity against […] bacteria Streptomyces chartreusis (NRRL 11407) by conventional paper disk; 9-10.
Assay [2] relates to Prescottella equi. The experiment in a line: The compound was tested in vitro for antimicrobial activity against gram-positive bacteria Corynebacterium equi (IFO 3720) by conventional paper disk; 7-8.
In another assay the test system is Enterococcus faecalis. The experiment in a line: The compound was tested in vitro for antimicrobial activity against gram-positive bacteria Enterococcus faecalis (ATCC 11700) by conventional paper disk; 7-8.
Assay [3] has as its system Prescottella equi. Put plainly: The compound was tested in vitro for antimicrobial activity against gram-positive bacteria Corynebacterium equi (IFO 3720) by conventional paper disk; 9-10.
Assay [4] relates to Streptomyces chartreusis. The experiment in a line: The compound was tested in vitro for antimicrobial activity against […] bacteria Streptomyces chartreusis (NRRL 11407) by conventional paper disk; 7-8.

These results are taken from ChEMBL document CHEMBL1130545, “Synthesis and antimicrobial activities of 3-N-substituted-4,5-bis(3-indolyl)oxazol-2-ones” (1997).

Take `C[C@H](C(=O)O)n1c(-c2c[nH]c3ccccc23)c(-c2c[nH]c3ccccc23)oc1=O`: the Inhibition zone in the assay on Bacillus cereus stood at 7 mm; with Streptomyces chartreusis [1] it was 9 mm; in the assay with Prescottella equi [2], 7 mm; with Enterococcus faecalis, 7 mm.

Consider `C=CCn1c(-c2c[nH]c3ccccc23)c(-c2c[nH]c3ccccc23)oc1=O`, for which the results for the Inhibition zone in the assay on Bacillus cereus, in the assay on Streptomyces chartreusis [1] and with Prescottella equi [3] were 7 mm, 9 mm and 9 mm, respectively.

With `O=c1oc(-c2c[nH]c3ccccc23)c(-c2c[nH]c3ccccc23)n1Cc1ccccc1`, the Inhibition zone in the assay on Bacillus cereus, in the assay with Prescottella equi [2] and in the assay with Streptomyces chartreusis [4] was 7 mm throughout.

As for `CCCn1c(-c2c[nH]c3ccccc23)c(-c2c[nH]c3ccccc23)oc1=O`, the Inhibition zone with Bacillus cereus worked out at 7 mm; with Streptomyces chartreusis [1] it was 9 mm; with Prescottella equi [2] it was 7 mm.
